# Patent US9302999B2, “Substituted triazoles as herbicides” (E. I. DU PONT DE NEMOURS AND COMPANY, priority 2012, dated 2016)
# Columns and labels:
# [1] = test system: sedge, umbrella (small-flower umbrella sedge Cyperus difformis); experiment: Test B flooded paddy: sedge, umbrella; type: in vivo; settings: Flood; 125 g ai/ha; applied to paddy water at 2-leaf stage; visually evaluated after 13 to 15 days
# In short: (§1)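 2-leaf plants; pots flooded 3 cm over soil; compound added to paddy water, depth kept constant. Greenhouse 13–15 d. Visual rating vs controls, 0–100 scale (100 = complete control); dash = no result.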
# [2] = test system: nutsedge, yellow (yellow nutsedge, Cyperus esculentus); experiment: Test C pre-/postemergence: nutsedge, yellow; type: in vivo
# In short: (§2)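 Visual injury scored 0–100 (100 = complete control) against untreated controls after 13–15 greenhouse days. Surfactant-containing solvent formulations applied either to soil after sowing (loam/sand) or over 1- to 4-leaf plants, 2–18 cm tall.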
# [3] = test system: crabgrass, large (large crabgrass, Digitaria sanguinalis); experiment: Test A pre-/postemergence: crabgrass, large; type: in vivo
# In short: (§3)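 Visual 0–100 injury ratings (0 no effect, 100 complete control) taken about ten days after treatment, relative to untreated controls. Preemergence treatment was a directed soil spray; postemergence plants were 2–10 cm tall at one- to two-leaf stage. Soil: loam/sand blend.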
# kochia (Kochia scoparia) = experiment: Test C pre-/postemergence: kochia; type: in vivo; settings: Postemergence
# In short: as §2
# [4] = test system: ducksalad (Heteranthera limosa); experiment: Test B flooded paddy: ducksalad; type: in vivo; settings: Flood; 125 g ai/ha; applied to paddy water at 2-leaf stage; visually evaluated after 13 to 15 days
# In short: as §1
# Barnyardgrass = experiment: Test C preemergence: barnyardgrass; type: in vivo, Echinochloa crus-galli
# soybean (Glycine max) = experiment: Test C pre-/postemergence: soybean; type: in vivo
# In short: as §2
# [5] = test system: velvetleaf (Abutilon theophrasti); experiment: Test C pre-/postemergence: velvetleaf; type: in vivo
# In short: as §2
# [6] = test system: ragweed (common ragweed, Ambrosia elation); experiment: Test C pre-/postemergence: ragweed; type: in vivo; settings: Postemergence
# In short: as §2
# [7] = test system: morningglory (Ipomoea spp.); experiment: Test A pre-/postemergence: morningglory; type: in vivo
# In short: as §3
# [8] = test system: foxtail, giant (giant foxtail, Setaria faberii); experiment: Test A pre-/postemergence: foxtail, giant; type: in vivo
# In short: as §3
# [9] = Postemergence, 31 g ai/ha, scale 0 to 100 (0 no effect, 100 complete control)
# [10] = Postemergence, 62 g ai/ha, scale 0 to 100 (0 no effect, 100 complete control)
# [11] = Postemergence, 125 g ai/ha, scale 0 to 100, 0 no effect, 100 complete control
# [12] = Postemergence, 250 g ai/ha, scale 0 to 100 (0 no effect, 100 complete control)
# [13] = Preemergence, 31 g ai/ha, scale 0 (no effect) to 100 (complete control)
# [14] = Preemergence, 62 g ai/ha, scale of 0 to 100, 0 is no effect, 100 is complete control
# [15] = Preemergence, 125 g ai/ha, scale 0 to 100, 0 no effect, 100 complete control
# [16] = Preemergence, 250 g ai/ha, scale 0 to 100, 0 no effect, 100 complete control
# [17] = Postemergence, 125 g ai/ha, 0 to 100 scale, 0 is no effect, 100 is complete control
# [18] = Postemergence, 500 g ai/ha, 0 to 100 scale, 0 is no effect, 100 is complete control
# [19] = Preemergence, 125 g ai/ha, 0 to 100 scale where 0 is no effect and 100 is complete control
# [20] = Preemergence, 500 g ai/ha, 0 to 100 scale (0 no effect, 100 complete control)
# [21] = 31 g ai/ha, scale 0 to 100 (0 no effect, 100 complete control)
# [22] = 62 g ai/ha, scale 0 to 100 (0 no effect, 100 complete control)
# [23] = 125 g ai/ha, scale 0 to 100, 0 no effect, 100 complete control
# [24] = 250 g ai/ha, scale 0 to 100 (0 no effect, 100 complete control)
compound,measurement,setting,value
CCOc1nn(-c2ccc(Cl)cc2)nc1Cc1ccnc(C(F)(F)F)c1 [Compound 188],"Plant response rating, Sedge, Umbrella (0 to 100 scale, 0 is no effect, 100 is complete control)",[1],100
same,"Plant response rating, Nutsedge, Yellow",[2]; [9],10
same,"Plant response rating, Nutsedge, Yellow",[2]; [10],10
same,"Plant response rating, Nutsedge, Yellow",[2]; [11],10
same,"Plant response rating, Nutsedge, Yellow",[2]; [12],15
same,"Plant response rating, Nutsedge, Yellow",[2]; [13],5
same,"Plant response rating, Nutsedge, Yellow",[2]; [14],5
same,"Plant response rating, Nutsedge, Yellow",[2]; [15],5
same,"Plant response rating, Nutsedge, Yellow",[2]; [16],20
same,"Plant response rating, Crabgrass, Large",[3]; [17],90
same,"Crabgrass, Large plant response rating",[3]; [18],90
same,"Plant response rating, Crabgrass, Large",[3]; [19],100
same,"Plant response rating, Crabgrass, Large",[3]; [20],100
same,"Plant response rating, Kochia",kochia (Kochia scoparia); [21],70
same,"Plant response rating, Kochia",kochia (Kochia scoparia); [22],90
same,"Plant response rating, Kochia",kochia (Kochia scoparia); [23],90
same,"Plant response rating, Kochia",kochia (Kochia scoparia); [24],90
same,"Plant response rating, Ducksalad (0 to 100 scale, 0 is no effect, 100 is complete control)",[4],90
same,"Plant response rating, Barnyardgrass","Barnyardgrass; 31 g ai/ha, scale 0 (no effect) to 100 (complete control)",80
same,"Plant response rating, Barnyardgrass","Barnyardgrass; 62 g ai/ha, scale of 0 to 100, 0 is no effect, 100 is complete control",100
same,"Plant response rating, Barnyardgrass",Barnyardgrass; [23],100
same,"Plant response rating, Soybean",soybean (Glycine max); [9],40
same,"Plant response rating, Soybean",soybean (Glycine max); [10],50
same,"Plant response rating, Soybean",soybean (Glycine max); [11],50
same,"Plant response rating, Soybean",soybean (Glycine max); [12],55
same,"Plant response rating, Soybean",soybean (Glycine max); [13],5
same,"Plant response rating, Soybean",soybean (Glycine max); [14],20
same,"Plant response rating, Soybean",soybean (Glycine max); [16],65
same,"Plant response rating, Velvetleaf",[5]; [9],50
same,"Plant response rating, Velvetleaf",[5]; [10],65
same,"Plant response rating, Velvetleaf",[5]; [11],70
same,"Plant response rating, Velvetleaf",[5]; [12],70
same,"Plant response rating, Velvetleaf",[5]; [13],45
same,"Plant response rating, Velvetleaf",[5]; [14],65
same,"Plant response rating, Velvetleaf",[5]; [15],85
same,"Plant response rating, Velvetleaf",[5]; [16],90
same,"Plant response rating, Ragweed",[6]; [21],65
same,"Plant response rating, Ragweed",[6]; [22],75
same,"Plant response rating, Ragweed",[6]; [23],85
same,"Plant response rating, Ragweed",[6]; [24],85
same,"Plant response rating, Morningglory",[7]; [17],90
same,Morningglory plant response rating,[7]; [18],100
same,"Plant response rating, Morningglory",[7]; [19],20
same,"Plant response rating, Morningglory",[7]; [20],90
same,"Plant response rating, Foxtail, Giant",[8]; [17],90
same,"Foxtail, Giant plant response rating",[8]; [18],90
same,"Plant response rating, Foxtail, Giant",[8]; [19],100
same,"Plant response rating, Foxtail, Giant",[8]; [20],100
